Read-outs that look alike come from different tables or passages of the source.
What was measured:
[1] = target: human BRD4 second bromodomain (BDII_E352-M457) (Homo sapiens (Human), UniProt O60885); assay: TR-FRET bromodomain binding assay, BRD4 second bromodomain
[2] = Rat liver microsome stability assay; assay type: in vitro ADME; settings: rat liver microsomes (male Sprague-Dawley), 0.5 μM test compound, 0.25 mg/mL microsomal protein, pH 7.4, 37° C.; read-out: Stability in rat liver microsomes (t1/2 in minutes)
[3] = tested on: OPM-2 human multiple myeloma xenograft tumors; assay: animal or person; settings: Mus musculus; for change in vivo at 3 mg/kg / inhibition in vivo at 3 mg/kg: 3 mg/kg/day; for change in vivo at 1 mg/kg / inhibition in vivo at 1 mg/kg: 1 mg/kg/day
[4] = Human liver microsome stability assay; assay type: in vitro ADME; settings: both sexes, human, microsomes, pH 7.4
[5] = target: human BRD4 first bromodomain (BDI_K57-E168) (Homo sapiens (Human), UniProt O60885); assay: TR-FRET bromodomain binding assay, BRD4 first bromodomain
[6] = tested on: breast cancer cell line MX-1; assay: MX-1 cell line proliferation assay; assay type: cell-based, human; settings: Homo sapiens, MX1, 72 h; MX-1 cells, 3-day proliferation, Cell Titer Glo; read-out: Cellular proliferation: EC50
[7] = tested on: LPS induced IL-6 production; assay: LPS (lipopolysaccharide) induced IL-6 production mouse assay; assay type: in vivo; settings: Mus musculus, read-out: Inhibition of LPS induced IL-6 production in Mice, % inhibition at 3 mg/kg; 3 mg/kg oral, 1 h before LPS; serum IL-6 2 h after LPS
[8] = Mouse liver microsome stability assay; assay type: in vitro ADME; settings: male, CD1, mouse, microsomes, pH 7.4
[9] = OPM-2, po, read-out: % TGD (tumor growth delay), OPM-2, PO, QDx21, vehicle A
[10] = OPM-2, po, read-out: % TGI (tumor growth inhibition), OPM-2, PO, QDx21, vehicle A

| Ki [1] [nM] | half-life at 0.5 μM [2] [min] | half-life at 0.5 μM [4] [min] | Ki [5] [nM] | EC50 [6] [nM] | half-life at 0.5 μM [8] [min] | SMILES | change in vivo at 3 mg/kg [3, 9] [%] | inhibition in vivo at 3 mg/kg [3, 10] [%] | inhibition in vivo at 3 mg/kg [7] [%] | change in vivo at 1 mg/kg [3, 9] [%] | inhibition in vivo at 1 mg/kg [3, 10] [%] | change in vivo at 1 mg/kg ([3]; OPM-2, iv, read-out: % TGD (tumor growth delay), OPM-2, IV, Q4Dx3, vehicle B) [%] | inhibition in vivo at 1 mg/kg ([3]; OPM-2, iv, read-out: % TGI (tumor growth inhibition), OPM-2, IV, Q4Dx3, vehicle B) [%] | change in vivo at 6 mg/kg ([3]; OPM-2, po, read-out: % TGD (tumor growth delay), OPM-2, 6 mg/kg/day, PO, QDx21, vehicle A) [%] | change in vivo at 20 mg/kg ([3]; OPM-2, po, read-out: % TGD (tumor growth delay), OPM-2, 20 mg/kg/day, PO, QDx21, vehicle A) [%] | inhibition in vivo at 6 mg/kg ([3]; OPM-2, po, read-out: % TGI (tumor growth inhibition), OPM-2, 6 mg/kg/day, PO, QDx21, vehicle A) [%] | inhibition in vivo at 20 mg/kg ([3]; OPM-2, po, read-out: % TGI (tumor growth inhibition), OPM-2, 20 mg/kg/day, PO, QDx21, vehicle A) [%] | change in vivo at 1.25 mg/kg ([3]; OPM-2, po, read-out: % TGD (tumor growth delay), OPM-2, 1.25 mg/kg/day, PO, QDx21, vehicle A) [%] | inhibition in vivo at 1.25 mg/kg ([3]; OPM-2, po, read-out: % TGI (tumor growth inhibition), OPM-2, 1.25 mg/kg/day, PO, QDx21, vehicle A) [%] |
| --- | --- | --- | --- | --- | --- | --- | --- | --- | --- | --- | --- | --- | --- | --- | --- | --- | --- | --- | --- |
| 0.86 | 34 | 86 | 0.88 | 5.3 | 38 | CCS(=O)(=O)c1ccc(OC2CCC(F)(F)CC2)c(-c2cn(C)c(=O)c3[nH]ccc23)c1 [Example 169, 4-{2-[(4,4-difluorocyclohexyl)oxy]-5-(ethylsulfonyl)phenyl}-6-methyl-1,6-dihydro-7H-pyrrolo[2,3-c]pyridin-7-one] | 77 | 69 | 67 |  |  |  |  |  |  |  |  |  |  |
| 1.5 | 36 | 56 | 1.5 | 18 | 37 | CNS(=O)(=O)c1ccc(OCC2CC2)c(-c2cn(C)c(=O)c3[nH]ccc23)c1 [Example 250, 4-(cyclopropylmethoxy)-N-methyl-3-(6-methyl-7-oxo-6,7-dihydro-1H-pyrrolo[2,3-c]pyridin-4-yl)benzenesulfonamide] | 29 | 42 |  |  |  |  |  |  |  |  |  |  |  |
| 1.1 | 31 | > 120 | 0.86 | 11.3 | > 120 | CCS(=O)(=O)c1ccc(NCC2CC2)c(-c2cn(C)c(=O)c3[nH]ccc23)c1 [Example 200, 4-{2-[(cyclopropylmethyl)amino]-5-(ethylsulfonyl)phenyl}-6-methyl-1,6-dihydro-7H-pyrrolo[2,3-c]pyridin-7-one] | 82 | 80 | 75 | 44 | 50 |  |  |  |  |  |  |  |  |
|  |  |  |  |  |  | CC(C)C[C@H](NC(=O)[C@H](Cc1ccccc1)NC(=O)c1cnccn1)B(O)O [Bortezomib] |  |  |  |  |  | 93 | 80 |  |  |  |  |  |  |
| 9.7 | > 120 | > 120 | 4.1 | 24.3 | > 120 | Cn1cc(-c2cc(S(C)(=O)=O)ccc2OCC2CC2)c2cc[nH]c2c1=O [Example 158, 4-[2-(cyclopropylmethoxy)-5-(methylsulfonyl)phenyl]-6-methyl-1,6-dihydro-7H-pyrrolo[2,3-c]pyridin-7-one] |  |  |  |  |  |  |  | 34 | 72 | 53 | 78 |  |  |
| 1.9 | 52 | > 120 | 7.5 | 60.9 | 55 | Cn1cc(-c2cc(S(N)(=O)=O)ccc2Oc2ccc(F)cc2F)c2cc[nH]c2c1=O [Example 146, 4-(2,4-difluorophenoxy)-3-(6-methyl-7-oxo-6,7-dihydro-1H-pyrrolo[2,3-c]pyridin-4-yl)benzenesulfonamide] | 78 | 76 | 80 | 35 | 39 |  |  |  |  |  |  |  |  |
| 4.5 | 83 | > 120 | 14.8 | 22.4 | > 120 | Cn1cc(-c2cc(CS(C)(=O)=O)cnc2Oc2ccc(F)cc2F)c2cc[nH]c2c1=O [Example 311, 4-{2-(2,4-difluorophenoxy)-5-[(methylsulfonyl)methyl]pyridin-3-yl}-6-methyl-1,6-dihydro-7H-pyrrolo[2,3-c]pyridin-7-one] |  |  | 74 |  |  |  |  |  |  |  |  | 90 | 60 |
| 4.6 | 12 | 29.9 | 50.9 | 30.6 | 28 | CCS(=O)(=O)c1ccc(N2CCCC2)c(-c2cn(C)c(=O)c3[nH]ccc23)c1 [Example 330, 4-[5-(ethylsulfonyl)-2-(pyrrolidin-1-yl)phenyl]-6-methyl-1,6-dihydro-7H-pyrrolo[2,3-c]pyridin-7-one] |  |  | 45 |  |  |  |  |  |  |  |  |  |  |
| 3.3 | 32 | 37 | 2.3 | 23.5 | 35 | Cn1cc(-c2cc(NS(C)(=O)=O)ccc2Oc2ccc(F)c(F)c2)c2cc[nH]c2c1=O [Example 48, N-[4-(3,4-difluorophenoxy)-3-(6-methyl-7-oxo-6,7-dihydro-1H-pyrrolo[2,3-c]pyridin-4-yl)phenyl]methanesulfonamide] |  |  | 62 |  |  |  |  |  |  |  |  |  |  |
| 5.4 | 19 | 10 | 12.1 | 74.6 | 11 | Cn1cc(-c2cc(S(=O)(=O)N3CCOCC3)ccc2OCC2CC2)c2cc[nH]c2c1=O [Example 286, 4-[2-(cyclopropylmethoxy)-5-(morpholin-4-ylsulfonyl)phenyl]-6-methyl-1,6-dihydro-7H-pyrrolo[2,3-c]pyridin-7-one] |  |  | 57 |  |  |  |  |  |  |  |  |  |  |
| 3.7 | 24 | 32 | 2.5 | 26.9 | 12 | CN(C)S(=O)(=O)c1cnc(NCC2CC2)c(-c2cn(C)c(=O)c3[nH]ccc23)c1 [Example 245, 6-[(cyclopropylmethyl)amino]-N,N-dimethyl-5-(6-methyl-7-oxo-6,7-dihydro-1H-pyrrolo[2,3-c]pyridin-4-yl)pyridine-3-sulfonamide] |  |  | 71 |  |  |  |  |  |  |  |  |  |  |
| 1.8 | 78 | 102 | 3.1 | 25.1 | 100 | Cn1cc(-c2cc(S(N)(=O)=O)cnc2OCC2CC2)c2cc[nH]c2c1=O [Example 207, 6-(cyclopropylmethoxy)-5-(6-methyl-7-oxo-6,7-dihydro-1H-pyrrolo[2,3-c]pyridin-4-yl)pyridine-3-sulfonamide] |  |  | 62 |  |  |  |  |  |  |  |  |  |  |
| 4.9 | > 120 | 88 | 11.6 | 25.5 | 11 | CNS(=O)(=O)Nc1ccc(Oc2ccc(F)cc2F)c(-c2cn(C)c(=O)c3[nH]ccc23)c1 [Example 65, N-[4-(2,4-difluorophenoxy)-3-(6-methyl-7-oxo-6,7-dihydro-1H-pyrrolo[2,3-c]pyridin-4-yl)phenyl]-N′-methylsulfuric diamide] |  |  | 63 |  |  |  |  |  |  |  |  |  |  |
| 2.1 | 42 | 37 | 3.5 | 26.8 | 35 | Cn1cc(-c2cc(NS(C)(=O)=O)ccc2Oc2ccc(F)cc2Cl)c2cc[nH]c2c1=O [Example 34, N-[4-(2-chloro-4-fluorophenoxy)-3-(6-methyl-7-oxo-6,7-dihydro-1H-pyrrolo[2,3-c]pyridin-4-yl)phenyl]methanesulfonamide] |  |  | 78 |  |  |  |  |  |  |  |  |  |  |

Source: US9296741B2, “Bromodomain inhibitors” (priority 2012, dated 2016)
